The target of one test is HIV-1 RT wild-type (WT) (Human immunodeficiency virus type 1 group M subtype B, UniProt P03366). Nature of the test: biochemical.
Test [1] deals with HIV replication in C8166 cells, virus coding for wild type reverse transcriptase. Nature of the test: microbe, parasite or virus in culture. It counts as cell-based, HIV-1. The conditions noted are these: Human immunodeficiency virus 1, 72 h, three days, extracellular p24. On the procedure: The compound of the invention was tested for its ability to inhibit HIV replication in cell culture in a 96-well plate assay. Complete RPMI 1640, consisting of RPMI 1640+10% fetal bovine serum, 10 μg/ml gentamycin and 10 μM β-mercaptoethanol was used for dilution of the compound as well as cell growth medium. The T lymphocyte cell line C8166 was infected at a multiplicity of infection of 0.001 with viruses coding for wild type and mutant reverse transcriptase. Cells were then incubated for three days in the presence of serial dilutions of the compound of the invention. The supernatant was pooled from eight replica wells and the concentration of extracellular p24 was determined using a commercially available HIV-1 p24 antigen assay kit (Beckman-Coulter®). The level of inhibition (% inhibition) was calculated with the following equation: [formula]

Each structure is given as a SMILES string.

Source text for HIV-1 RT wild-type (WT): This activity can be quantitatively measured in a cell-free enzyme assay and is based upon the observation that reverse transcriptase is able to use a synthetic template poly r(C) primed with a biotinylated oligo d(G) to transcribe a radio-labeled DNA strand utilizing 3H-dGTP as a substrate.

Take `CCN1c2ncc(CCOc3ccc(C(=O)O)c(C)c3C)cc2C(=O)N(C)c2cccnc21` [Entry 1001]: the IC50 – broadly, the midpoint of a concentration-inhibition curve – on HIV-1 RT wild-type (WT) was below 0.05 µM. For the same compound, the EC50 (in general, the concentration at which the effect is half-maximal) in test [1] was below 0.05 µM. `CCN1c2ncc(CCOc3ccc(C(=O)O)cc3C)cc2C(=O)N(C)c2cccnc21` [Entry 1002] came in with an IC50 against HIV-1 RT wild-type (WT) below 0.05 µM. Besides, in test [1], the EC50 was below 0.05 µM. For `CCc1cc(C(=O)O)ccc1OCCc1cnc2c(c1)C(=O)N(C)c1cccnc1N2CC` [Entry 1003], the IC50 against HIV-1 RT wild-type (WT) was below 0.05 µM. With `CCN1c2ncc(CCOc3ccc(C(=O)O)c(O)c3C)cc2C(=O)N(C)c2cccnc21` [Entry 1004], the IC50 at HIV-1 RT wild-type (WT) was below 0.05 µM. In test [1], this compound registered an EC50 below 0.05 µM.

For `CCN1c2ncc(CCOc3ccc(C(=O)O)cc3Br)cc2C(=O)N(C)c2cccnc21` [Entry 1005], on HIV-1 RT wild-type (WT), the IC50 was below 0.05 µM. Take `CCN1c2ncc(CCOc3ccc(C(C)C(=O)O)cc3C)cc2C(=O)N(C)c2cccnc21` (stereo not drawn) [Entry 1006]: the 50% inhibitory concentration (IC50) on HIV-1 RT wild-type (WT) is below 0.05 µM. As for `CCN1c2ncc(CCOc3ccc(CCC(=O)O)cc3C)cc2C(=O)N(C)c2ccc(Cl)nc21` [Entry 1007], the IC50 at HIV-1 RT wild-type (WT) was below 0.05 µM. The compound further yielded an EC50 in test [1] below 0.05 µM. As to `CCN1c2ncc(CCOc3ccc(CCC(=O)O)cc3C)cc2C(=O)N(C)c2cccnc21` [Entry 1008], the IC50 against HIV-1 RT wild-type (WT) is below 0.05 µM. In test [1], this compound came in with an EC50 below 0.05 µM. On to `CCN1c2ncc(CCOc3ccc(C=CC(=O)O)cc3C)cc2C(=O)N(C)c2ccc(Cl)nc21` [Entry 1009], for which the IC50 on HIV-1 RT wild-type (WT) was below 0.05 µM. Besides, the EC50 in test [1] was below 0.05 µM. In turn, `CCN1c2ncc(CCOc3ccc(C=CC(=O)O)cc3C)cc2C(=O)N(C)c2cccnc21` [Entry 1010] returned an IC50 against HIV-1 RT wild-type (WT) below 0.05 µM. Besides, the half-maximal effective concentration (EC50) in test [1] was below 0.05 µM.

On HIV-1 RT wild-type (WT), `CCN1c2ncc(CCOc3ccc(CC(=O)O)cc3Cl)cc2C(=O)N(C)c2cccnc21` [Entry 1011] came in with an IC50 below 0.05 µM. On the same count and under the same terms, for `CCN1c2ncc(CCOc3ccc(CC(=O)O)cc3Br)cc2C(=O)N(C)c2cccnc21` [Entry 1012] the value was below 0.05 µM. For `CCN1c2ncc(CCOc3ccc(CC(=O)O)c(C)c3C)cc2C(=O)N(C)c2cccnc21` [Entry 1013], at HIV-1 RT wild-type (WT), the IC50 was below 0.05 µM. For `CCN1c2ncc(CCOc3ccc(CC(=O)O)cc3C)cc2C(=O)N(C)c2cccnc21` [Entry 1014], the IC50 against HIV-1 RT wild-type (WT) was below 0.05 µM. Besides, the 50% effective concentration (EC50) in test [1] is below 0.05 µM. The compound `CCN1c2ncc(CCOc3ccc(C(=O)O)cc3C)cc2C(=O)N(C)c2ccc(Cl)nc21` [Entry 1015] registered a concentration for half-maximal inhibition (IC50) against HIV-1 RT wild-type (WT) below 0.05 µM.

On to `CCN1c2ncc(CCOc3ccc(C(=O)O)cc3C)cc2C(=O)Nc2c(C)cc(Cl)nc21` [Entry 1016], for which the IC50 against HIV-1 RT wild-type (WT) is below 0.05 µM. Compound `CCN1c2ncc(CCOc3ccc(C(=O)O)cc3C)cc2C(=O)N(C)c2ccc(C)nc21` [Entry 1017] had an IC50 on HIV-1 RT wild-type (WT) below 0.05 µM.

The compound `CCN1c2ncc(CCOc3ccc(C(=O)O)cc3C)cc2C(=O)Nc2c(C)ccnc21` [Entry 1018] came in with an IC50 against HIV-1 RT wild-type (WT) below 0.05 µM. Besides, the EC50 in test [1] was below 0.05 µM. On to `CCN1c2ncc(CCOc3ccc(C(=O)O)cc3C)cc2C(=O)N(C)c2ccc(OC)nc21` [Entry 1019], for which the IC50 on HIV-1 RT wild-type (WT) was below 0.05 µM.

Consider `CCN1c2ncc(CCOc3ccc(C(=O)O)cc3C)cc2C(=O)N(C)c2ccc(F)nc21` [Entry 1020], for which the IC50 at HIV-1 RT wild-type (WT) is below 0.05 µM. Take `CCOc1ccc2c(n1)N(CC)c1ncc(CCOc3ccc(C(=O)O)cc3C)cc1C(=O)N2C` [Entry 1021]: the IC50 on HIV-1 RT wild-type (WT) is below 0.05 µM. Compound `CCN1c2ncc(CCOc3ccc(C(=O)O)cc3[N+](=O)[O-])cc2C(=O)N(C)c2cccnc21` [Entry 1022] came in with an IC50 against HIV-1 RT wild-type (WT) of 0.05 to 0.1 µM. The EC50 in test [1] was in the range of 0.05 to 0.1 µM. Take `CCN1c2ncc(CCOc3ccc(C(=O)O)cc3Cl)cc2C(=O)N(C)c2cccnc21` [Entry 1023]: the IC50 at HIV-1 RT wild-type (WT) is 0.05 to 0.1 µM. The compound further registered an EC50 in test [1] below 0.05 µM. Consider `CCN1c2ncc(CCOc3ccc(C(=O)O)c(N)c3)cc2C(=O)N(C)c2cccnc21` [Entry 1024], for which, on HIV-1 RT wild-type (WT), the IC50 was below 0.05 µM. With `CCN1c2ncc(CCOc3ccc(C(=O)O)c(F)c3)cc2C(=O)N(C)c2cccnc21` [Entry 1025], the IC50 at HIV-1 RT wild-type (WT) fell in the range of 0.05 to 0.1 µM. Regarding `CCN1c2ncc(CCOc3ccc(C(=O)O)c(Cl)c3)cc2C(=O)N(C)c2cccnc21` [Entry 1026], the IC50 at HIV-1 RT wild-type (WT) fell in the range of 0.05 to 0.1 µM. For `CCN1c2ncc(CCOc3ccc(C(=O)O)cc3C(F)(F)F)cc2C(=O)N(C)c2cccnc21` [Entry 1027], the IC50 at HIV-1 RT wild-type (WT) was 0.05 to 0.1 µM. Still for that read-out and setting: the figure for `CCN1c2ncc(CCOc3ccc(C(=O)O)cc3C)cc2C(=O)N(C)c2ccc(N(C)C)nc21` [Entry 1028] is below 0.05 µM. As for `CCN1c2ncccc2NC(=O)c2cc(CCOc3ccc(C(=O)O)cc3C)cnc21` [Entry 1029], the IC50 against HIV-1 RT wild-type (WT) is below 0.05 µM. The EC50 in test [1] is below 0.05 µM. For `CCN1c2ncc(CCOc3ccc(C(=O)OC)cc3C)cc2C(=O)N(C)c2cccnc21` [Entry 1030], the IC50 against HIV-1 RT wild-type (WT) is below 0.05 µM. Further, the 50% effective concentration (EC50) in test [1] was below 0.05 µM. Take `CCc1cc(C(=O)OC)ccc1OCCc1cnc2c(c1)C(=O)N(C)c1cccnc1N2CC` [Entry 1031]: on HIV-1 RT wild-type (WT), the IC50 is below 0.05 µM. On HIV-1 RT wild-type (WT), `CCN1c2ncc(CCOc3ccc(C(=O)OC)cc3Cl)cc2C(=O)N(C)c2cccnc21` [Entry 1032] registered an IC50 below 0.05 µM. `CCN1c2ncc(CCOc3ccc(C(=O)OC)cc3C(F)(F)F)cc2C(=O)N(C)c2cccnc21` [Entry 1033] registered a concentration for half-maximal inhibition (IC50) against HIV-1 RT wild-type (WT) below 0.05 µM.

The compound `CCOc1ccc2c(n1)N(CC)c1ncc(CCOc3ccc(C(=O)OC)cc3C)cc1C(=O)N2C` [Entry 1034] came in with an IC50 on HIV-1 RT wild-type (WT) below 0.05 µM. Compound `CCN1c2ncc(CCOc3ccc(C(=O)OC)c(F)c3)cc2C(=O)N(C)c2cccnc21` [Entry 1035] returned an IC50 against HIV-1 RT wild-type (WT) below 0.05 µM.

The values are drawn from patent publication US6706706B2, “Non-nucleoside reverse transcriptase inhibitors” (priority 2002, dated 2004).
